Counter-ions that a name gives are not always drawn.
Assays:
[1] = target: T1, arginase II (ARG II) (Homo sapiens, UniProt P78540); assay: Inhibition of arginase II, spectrophotometric urea assay at 530 nm; type: biochemical; conditions: Formula I compounds, Table 2; read-out: Potency (ARG II)
T1 sequence (P78540 23-354): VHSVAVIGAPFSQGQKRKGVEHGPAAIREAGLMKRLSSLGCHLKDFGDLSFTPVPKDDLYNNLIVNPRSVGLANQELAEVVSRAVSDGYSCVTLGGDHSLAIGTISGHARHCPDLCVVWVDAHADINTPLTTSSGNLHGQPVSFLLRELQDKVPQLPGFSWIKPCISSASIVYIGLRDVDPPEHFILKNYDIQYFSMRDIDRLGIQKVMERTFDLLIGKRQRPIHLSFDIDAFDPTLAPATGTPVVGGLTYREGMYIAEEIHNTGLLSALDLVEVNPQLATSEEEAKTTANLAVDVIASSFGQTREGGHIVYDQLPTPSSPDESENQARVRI
How it was run: (§1)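 IC50 was derived by regression of OD530 normalized to uninhibited-enzyme controls against log concentration. Urea from 60-min, 37 °C turnover of L-arginine with manganese sulfate was detected after acid o-phthaldialdehyde/primaquine quench and 10 min colour development. Arginase I and II came from 100 ng/ml stocks in pH 7.4 phosphate with ovalbumin.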

[2] = target: T2, human arginase I (ARG I) (Homo sapiens, UniProt P05089); assay: Inhibition of arginase I, spectrophotometric urea assay at 530 nm; type: biochemical; conditions: Formula I compounds, Table 2; read-out: Potency (ARG I)
T2 sequence (P05089 1-322): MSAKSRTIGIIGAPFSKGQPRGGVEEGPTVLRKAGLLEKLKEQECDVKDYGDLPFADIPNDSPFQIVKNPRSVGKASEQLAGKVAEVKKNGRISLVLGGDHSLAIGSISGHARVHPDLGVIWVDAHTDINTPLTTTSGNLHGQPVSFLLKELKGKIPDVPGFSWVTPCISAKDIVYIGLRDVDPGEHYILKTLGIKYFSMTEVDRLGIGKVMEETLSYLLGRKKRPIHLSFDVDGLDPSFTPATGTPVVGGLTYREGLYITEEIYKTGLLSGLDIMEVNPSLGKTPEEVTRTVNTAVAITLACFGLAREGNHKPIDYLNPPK
How it was run: as §1

Row | IC50 [1] | IC50 [2] | SMILES
1 | 251 to 1000 nM | 0.1 to 250 nM | CC(C)NCCC(N)(CCCCB(O)O)C(=O)O (stereo not drawn) [compound 55, 2-amino-6-borono-2-(2-(isopropylamino)ethyl)hexanoic acid dihydrochloride]
2 | 2000 to 5000 nM | 1000 to 2000 nM | NC(CCCCB(O)O)(CCN1CCC[C@H](C(=O)O)C1)C(=O)O (stereo partly drawn) [compound 56, (3S)-1-(3-amino-7-borono-3-carboxyheptyl)piperidine-3-carboxylic acid dihydrochloride]
3 | 1000 to 2000 nM | 1000 to 2000 nM | CC1(C(=O)O)CCN(CCC(N)(CCCCB(O)O)C(=O)O)CC1 (stereo not drawn) [compound 57, 1-(3-amino-7-borono-3-carboxyheptyl)-4-methylpiperidine-4-carboxylic acid]
4 | 0.1 to 250 nM | 0.1 to 250 nM | NC(CCCCB(O)O)(CCNC1Cc2ccccc2C1)C(=O)O (stereo not drawn) [compound 58, 2-amino-6-borono-2-(2-(2,3-dihydro-1H-inden-2-ylamino)ethyl)hexanoic acid dihydrochloride]
5 | 2000 to 5000 nM | 1000 to 2000 nM | NC(CCCCB(O)O)(CCN1CC(O)C1)C(=O)O (stereo not drawn) [compound 59, 2-amino-6-borono-2-(2-(3-hydroxyazetidin-1-yl)ethyl)hexanoic acid dihydrochloride]
6 | 251 to 1000 nM | 0.1 to 250 nM | CCCCC1(NCCC(N)(CCCCB(O)O)C(=O)O)CC1 (stereo not drawn) [compound 60, 2-amino-6-borono-2-(2-(1-butylcyclopropylamino)ethyl)hexanoic acid dihydrochloride]
7 | 1000 to 2000 nM | 251 to 1000 nM | COc1ccc(CC2(NCCC(N)(CCCCB(O)O)C(=O)O)CC2)cc1 (stereo not drawn) [compound 61, 2-amino-6-borono-2-(2-(1-(4-methoxybenzyl)cyclopropylamino)ethyl)hexanoic acid]
8 | 1000 to 2000 nM | 251 to 1000 nM | NC(CCCCB(O)O)(CCN1CCc2ccsc2C1)C(=O)O (stereo not drawn) [compound 62, 2-amino-6-borono-2-(2-(4,5-dihydrothieno[2,3-c]pyridin-6(7H)-yl)ethyl)hexanoic acid dihydrochloride]
9 | 0.1 to 250 nM | 0.1 to 250 nM | NC(CCCCB(O)O)(CCNCCCc1ccc(F)c(F)c1)C(=O)O (stereo not drawn) [compound 63, 2-amino-6-borono-2-(2-(3-(3,4-difluorophenyl)propylamino)ethyl)hexanoic acid dihydrochloride]
10 | 0.1 to 250 nM | 0.1 to 250 nM | NC(CCCCB(O)O)(CCNCCCc1cc(C(F)(F)F)ccc1Cl)C(=O)O (stereo not drawn) [compound 64, 2-amino-6-borono-2-(2-(3-(2-chloro-5-(trifluoromethyl)phenyl)propylamino)ethyl)hexanoic acid dihydrochloride]
11 | 0.1 to 250 nM | 0.1 to 250 nM | COc1cccc(CCCNCCC(N)(CCCCB(O)O)C(=O)O)c1 (stereo not drawn) [compound 65, 2-amino-6-borono-2-(2-(3-(3-methoxyphenyl)propylamino)ethyl)hexanoic acid dihydrochloride]
12 | 0.1 to 250 nM | 0.1 to 250 nM | NC(CCCCB(O)O)(CCNCCCc1ccc(Cl)cc1Cl)C(=O)O (stereo not drawn) [compound 66, 2-amino-6-borono-2-(2-(3-(2,4-dichlorophenyl)propylamino)ethyl)hexanoic acid dihydrochloride]
13 | 251 to 1000 nM | 251 to 1000 nM | CC(C)(C)NCCC(N)(CCCCB(O)O)C(=O)O (stereo not drawn) [compound 67, 2-amino-6-borono-2-(2-(tert-butylamino)ethyl)hexanoic acid dihydrochloride]
14 | 251 to 1000 nM | 251 to 1000 nM | NC(CCCCB(O)O)(CCNC1CC1)C(=O)O (stereo not drawn) [compound 68, 2-amino-6-borono-2-(2-(cyclopropylamino)ethyl)hexanoic acid dihydrochloride]
15 | 0.1 to 250 nM | 0.1 to 250 nM | COc1ccc(CNCCC(N)(CCCCB(O)O)C(=O)O)cc1 (stereo not drawn) [compound 69, 2-amino-6-borono-2-(2-(4-methoxybenzylamino)ethyl)hexanoic acid dihydrochloride]
16 | 251 to 1000 nM | 0.1 to 250 nM | NC(CCCCB(O)O)(CCNCc1ccccc1)C(=O)O (stereo not drawn) [compound 70, 2-amino-2-(2-(benzylamino)ethyl)-6-boronohexanoic acid dihydrochloride]
17 | 2000 to 5000 nM | 2000 to 5000 nM | CN(C)CCN(C)CCC(N)(CCCCB(O)O)C(=O)O (stereo not drawn) [compound 71, 2-amino-6-borono-2-(2-((2-(dimethylamino)ethyl)(methyl)amino)ethyl)hexanoic acid trihydrochloride]
18 | 251 to 1000 nM | 251 to 1000 nM | NC(CCCCB(O)O)(CCNC1CCCC1)C(=O)O (stereo not drawn) [compound 72, 2-amino-6-borono-2-(2-(cyclopentylamino)ethyl)hexanoic acid dihydrochloride]

Row | IC50 [1] | IC50 [2] | SMILES
19 | 251 to 1000 nM | 0.1 to 250 nM | NCCN(CCC(N)(CCCCB(O)O)C(=O)O)Cc1ccccc1 (stereo not drawn) [compound 73, 2-amino-2-(2-((2-aminoethyl)(benzyl)amino)ethyl)-6-boronohexanoic acid trihydrochloride]
20 | > 5000 nM | 2000 to 5000 nM | CC(C)Oc1ccc(CN(C)CCC(N)(CCCCB(O)O)C(=O)O)cc1 (stereo not drawn) [compound 74, 2-amino-6-borono-2-(2-((4-isopropoxybenzyl)(methyl)amino)ethyl)hexanoic acid dihydrochloride]
21 | 1000 to 2000 nM | 251 to 1000 nM | NC(CCCCB(O)O)(CCN1CCC1)C(=O)O (stereo not drawn) [compound 75, 2-amino-2-(2-(azetidin-1-yl)ethyl)-6-boronohexanoic acid dihydrochloride]
22 | > 5000 nM | > 5000 nM | NC(CCCCB(O)O)(CCN1CCN(c2ccccc2)CC1)C(=O)O (stereo not drawn) [compound 76, 2-amino-6-borono-2-(2-(4-phenylpiperazin-1-yl)ethyl)hexanoic acid dihydrochloride]
23 | > 5000 nM | 2000 to 5000 nM | COCCN1CCN(CCC(N)(CCCCB(O)O)C(=O)O)CC1 (stereo not drawn) [compound 77, 2-amino-6-borono-2-(2-(4-(2-methoxyethyl)piperazin-1-yl)ethyl)hexanoic acid trihydrochloride]
24 | 2000 to 5000 nM | 2000 to 5000 nM | CN(CCC(N)(CCCCB(O)O)C(=O)O)CC(O)c1ccccc1 (stereo not drawn) [compound 78, 2-amino-6-borono-2-(2-((2-hydroxy-2-phenylethyl)(methyl)amino)ethyl)hexanoic acid dihydrochloride]
25 | > 5000 nM | 2000 to 5000 nM | NC(CCCCB(O)O)(CN1CCCCC1)C(=O)O (stereo not drawn) [compound 79, 2-amino-6-borono-2-(piperidin-1-ylmethyl)hexanoic acid]
26 | > 5000 nM | 2000 to 5000 nM | CN1CCN(CC(N)(CCCCB(O)O)C(=O)O)CC1 (stereo not drawn) [compound 80, 2-amino-6-borono-2-((4-methylpiperazin-1-yl)methyl) hexanoic acid trihydrochloride]
27 | 2000 to 5000 nM | 2000 to 5000 nM | CCCNCC(N)(CCCCB(O)O)C(=O)O (stereo not drawn) [compound 83, 2-amino-6-borono-2-((propylamino)methyl)hexanoic acid dihydrochloride]
28 | > 5000 nM | 2000 to 5000 nM | NC(CCCCB(O)O)(CNCc1ccccc1)C(=O)O (stereo not drawn) [compound 84, 2-amino-2-((benzylamino)methyl)-6-boronohexanoic acid]
29 | 2000 to 5000 nM | 2000 to 5000 nM | C[C@@H](O)CNCC(N)(CCCCB(O)O)C(=O)O (stereo partly drawn) [compound 85, 2-amino-6-borono-2-(((R)-2-hydroxypropylamino)methyl)hexanoic acid dihydrochloride]
30 | 2000 to 5000 nM | 2000 to 5000 nM | CCCCNCC(N)(CCCCB(O)O)C(=O)O (stereo not drawn) [compound 86, 2-amino-6-borono-2-((butylamino)methyl)hexanoic acid dihydrochloride]
31 | 1000 to 2000 nM | 1000 to 2000 nM | NC(CCCCB(O)O)(CNC1CCOCC1)C(=O)O (stereo not drawn) [compound 87, 2-amino-6-borono-2-((tetrahydro-2H-pyran-4-ylamino)methyl)hexanoic acid dihydrochloride]
32 | 1000 to 2000 nM | 2000 to 5000 nM | CC(C)CC(CO)NCC(N)(CCCCB(O)O)C(=O)O [compound 88, 2-amino-6-borono-2-(((S)-1-hydroxy-4-methylpentan-2-ylamino)methyl)hexanoic acid dihydrochloride]
33 | 2000 to 5000 nM | 2000 to 5000 nM | C[C@H](NCC(N)(CCCCB(O)O)C(=O)O)c1ccccc1 (stereo partly drawn) [compound 90, 2-amino-6-borono-2-(((S)-1-phenylethylamino)methyl)hexanoic acid dihydrochloride]
34 | 2000 to 5000 nM | 2000 to 5000 nM | C[C@H](CO)NCCC(N)(CCCCB(O)O)C(=O)O (stereo partly drawn) [compound 91]
35 | > 5000 nM | > 5000 nM | NC(CCCCB(O)O)(CCOc1ccc(Cl)cc1)C(=O)O (stereo not drawn) [compound 92, 2-amino-6-borono-2-(2-(4-chlorophenoxy)ethyl)hexanoic acid hydrochloride]
36 | > 5000 nM | > 5000 nM | COc1ccc(OCCC(N)(CCCCB(O)O)C(=O)O)cc1 (stereo not drawn) [compound 93, 2-amino-6-borono-2-(2-(4-methoxyphenoxy)ethyl)hexanoic acid hydrochloride]

From patent US9994594B2, “Inhibitors of arginase and their therapeutic applications” (MARS, INCORPORATED, priority 2010, dated 2018)
